Assays:
RamR = target: T1, RamR (Salmonella typhimurium, UniProt Q8ZR43); test: SPR binding of bile acids to immobilized RamR; parameters: species or system Salmonella enterica serovar Typhimurium
T1 construct: made in house
T1 sequence (Q8ZR43 1-193): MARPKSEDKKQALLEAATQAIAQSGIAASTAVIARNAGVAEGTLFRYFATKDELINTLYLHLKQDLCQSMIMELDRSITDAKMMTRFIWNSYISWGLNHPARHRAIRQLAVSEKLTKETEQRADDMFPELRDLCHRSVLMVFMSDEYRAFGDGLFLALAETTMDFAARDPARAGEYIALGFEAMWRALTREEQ
Procedure: Because cholic and chenodeoxycholic acids induce ramA in a RamR-dependent manner, we hypothesized that these compounds are recognized by RamR. To test the possibility that cholic and chenodeoxycholic acids may bind to RamR, we employed surface plasmon resonance (SPR) analysis using a Biacore T200 instrument (GE Healthcare).
Dissociation was also recorded for 2 min.

[1] = target: interaction between RamR and PramA (Salmonella typhimurium, UniProt Q8ZR43); test: SPR inhibition of RamR binding to the 100-bp DNA fragment with the RamR-binding site; conditions: for inhibition at 500 µM: read-out: inhibition of the interaction between RamR and the DNA fragment
[2] = test system: ramA mRNA levels in ∆ramR Salmonella strain; type: cell-based, Salmonella enterica serovar Typhimurium; conditions: LB broth with 5 mM bile acid, qRT-PCR
Procedure: (§1) The bacterial strains and the plasmids used in this study are listed in Supplementary Table 3. The S. enterica serovar Typhimurium strains were the wild-type strain ATCC14028s[21] and its ∆ramR mutant (which was produced as described previously)[22]. Bacterial strains were grown at 37 °C in Luria–Bertani broth supplemented, when appropriate, with ampicillin (100 µg/ml), kanamycin (25 µg/ml) or chloramphenicol (25 µg/ml).
(§2) Bacteria were grown until mid-log phase (OD600 of 0.6) and harvested by centrifugation. Pelleted cells were stabilized with RNAprotect Bacteria Reagent (Qiagen) and stored at −80 °C until needed. Total RNA was extracted using an RNeasy Mini kit (Qiagen). Removal of residual genomic DNA was performed using a Turbo DNA-free kit (Ambion) and checked by negative PCR amplification of the chromosomal sequence. RNA integrity was verified by electrophoresis on a 1% agarose gel. Total RNA (1.5 µg) was reverse-transcribed using random hexamers and the Superscript III First Strand Synthesis System (Applied Biosystems). The expression level of each gene of interest was calculated as the average of the results from three independent cDNA samples. For each cDNA sample and each gene, qRT-PCR runs were performed in duplicated wells and the primers used for qRT-PCR are listed in Supplementary Table 4. The cycling conditions were: 95 °C for 5 min followed by 40 cycles of 95 °C for 10 s and then 60 °C for 15 s. After each run, amplification specificity and the absence of primer dimers were verified using a dissociation curve, acquired by heating the PCR products from 60 °C to 95 °C. The relative quantities of transcripts were determined using a standard curve and normalized against the geometric mean of three reference genes (gmk, gyrB and rrs).

[3] = test system: ramA mRNA levels in wild-type S. Typhimurium strain; type: cell-based, Salmonella enterica serovar Typhimurium; conditions: LB broth with 5 mM bile acid, qRT-PCR
Procedure: as §1, §2

[4] = target: the molecule itself; test: crystal structure; co-crystals of RamR with a 5-fold molar excess of cholic or chenodeoxycholic acid; hanging drops, vapor diffusion, 25 °C; 20 mM sodium phosphate (pH 6.6), 75 mM NaCl, 2 mM DTT

Molecule	Kd (RamR) [µM]	IC50 [1] [µM]	inhibition at 500 µM [1] [%]	fold difference in ramA mRNA levels relative to the control in the same strain [2] [fold]	fold difference in ramA mRNA levels relative to the control in the same strain [3] [fold]	binding result [4]
C[C@H](CCC(=O)O)[C@H]1CC[C@H]2[C@@H]3[C@H](O)C[C@@H]4C[C@H](O)CC[C@]4(C)[C@H]3CC[C@]12C [chenodeoxycholic acid, 3α, 7α-dihydroxy-5β-cholan-24-oic acid]	65.3	19.2	≥ 90	0.8		
C[C@H](CCC(=O)O)[C@H]1CC[C@H]2[C@@H]3[C@H](O)C[C@@H]4C[C@H](O)CC[C@]4(C)[C@H]3C[C@H](O)[C@]12C [cholic acid, 3α, 7α, 12α-trihydroxy-5β-cholan-24-oic acid]	60.5	33	≥ 90	1.6		
C[C@H](CCC(=O)O)[C@H]1CC[C@H]2[C@@H]3CC[C@@H]4C[C@H](O)CC[C@]4(C)[C@H]3C[C@H](O)[C@]12C [deoxycholic acid, 3α, 12αdihydroxy-5β-cholan-24-oic acid]		318	~50	2.7	1.7	
RamR (natural protein, Salmonella enterica serovar Typhimurium, RamR, TetR-family transcriptional repressor of ramA, Salmonella enterica serovar Typhimurium; ligand-free structure PDB 3VVX; also called multidrug resistance regulator RamR; local transcriptional repressor RamR) ARPKSEDKKQALLEAATQAIAQSGIAASTAVIARNAGVAEGTLFRYFATKDELINTLYLHLKQDLCQSMIMELDRSITDAKMMTRFIWNSYISWGLNHPARHRAIRQLAVSEKLTKETEQRADDMFPELRDLCHRSVLMVFMSDEYRAFGDGLFLALAETTMDFAARDPARAGEYIALGFEAMWRALTREEQ						binds
